Data on 15 molecules can be found in patent US20120010206A1, “IMIDAZOLOPYRIDINE COMPOUNDS USEFUL FOR THE TREATMENT OF DEGENERATIVE AND INFLAMMATORY DISEASES” (priority 2006, published 2012).

Where only a bound is given, the exact number is not on record here.

Test [1] concerns MMP1 expression from activated SFs (RASF). Description: MMP assay: MMP1 expression (ELISA) by TNF-α-triggered RASFs. Type of test: cell-based. The note with it: RASF triggered with TNFα, MMP1 ELISA after 48 hrs, semi-quantitative score. As to the method: A 384-well format ELISA for measurement of MMP1 is developed. Various primary antibodies are tested, as well as various ELISA protocols. The following protocol is developed and validated to measure MMP1 levels in SF supernatant in 384 well plates: white Lumitrac 600 384 well plates (Greiner) are coated with 2 μg/mL anti-MMP1 antibody MAB1346 (Chemicon). The antibody is diluted in buffer 40 (1.21 g Tris base (Sigma), 0.58 g NaCl (Calbiochem) and 5 mL 10% NaN3 (Sigma) in 1 L milliQ water and adjusted to pH 8.5). After overnight incubation at 4° C., plates are washed with PBS (80 g NaCl, 2 g KCl (Sigma), 11.5 g Na2HPO4.7H2O and 2 g KH2PO4 in 10 L milliQ; pH 7.4) and blocked with 100 μL/well Casein buffer (2% Casein (VWR International) in PBS). Next day, casein buffer is removed from ELISA plates and replaced by 50 μL/well EC buffer (4 g casein, 2.13 g Na2HPO4 (Sigma), 2 g bovine albumin (Sigma), 0.69 g NaH2PO4.H2O (Sigma), 0.5 g CHAPS (Roche), 23.3 g NaCl, 4 mL 0.5 M EDTA pH 8 (Invitrogen), 5 mL 10% NaN3 in 1 L milliQ and adjusted to pH 7.0). 0.25 mM DTT (Sigma) is added to the thawed sample plates. After removal of the EC buffer, 20 μL of sample is transferred to the ELISA plates. After overnight incubation at 4° C. plates are washed twice with PBS and once with PBST (PBS with 0.05% Tween-20 (Sigma)) and incubated with 35 μL/well biotinylated anti-MMP1 antibody solution (R&D). This secondary antibody is diluted in buffer C (0.82 g NaH2PO4.H2O, 4.82 g Na2HPO4, 46.6 g NaCl, 20 g bovine albumin and 4 ml, 0.5M EDTA pH 8 in 2 L milliQ and adjusted to pH 7.0) at a concentration of 5 μg/mL. After 2 h of incubation at RT, plates are washed as described above and incubated with 50 μL/well streptavidin-HRP conjugate (Biosource). Streptavidin-HRP conjugate is diluted in buffer C at a concentration of 0.25 μg/mL. After 45 min, plates are washed as described above and incubated for 5 min with 50 μL/well BM Chem ELISA Substrate (Roche). Readout is performed on the Luminoscan Ascent Luminometer (Labsystems) with an integration time of 200 msec or with an Envision reader (Perkin Elmer).
SFs were acquired at passage 1 from a commercial supplier (Cell applications, Inc.). SFs are cultured in DMEM supplemented with 10% heat-inactivated FBS, 1× penicillin/streptomycin (Invitrogen) at 37° C., 10% CO2 until passage 6. Aliquots of the cells are frozen and cryopreserved in liquid nitrogen. Starting from a cryopreserved aliquot, cells are further expanded by sub-culturing cells at 1/3 ratio every week. Cells between passage 10 and 12 are routinely used in compound testing according to the following protocol.
Starting from the compound master stocks (all at 10 mM concentration in 100% DMSO) a 3-fold serial dilution is made in 96-well plates in 100% DMSO. Then, plates are further diluted 45-fold in M199 medium supplemented with 1% heat-inactivated FBS to obtain a intermediate work stock.
At day 1, RASFs are seeded in 96 well plates (flat bottom, tissue culture treated, Greiner) at a density of 3000 cells/well in complete synovial growth medium (Cell Applications). Day 5, the medium is completely removed from the cells, and replaced by 81 μL of M199 medium supplemented with 1% heat-inactivated FBS followed by addition of 10 μL compound out of the intermediate work stock. After an incubation period of 90 minutes, which allows the compounds to equilibrate and enter the cells, cells are stimulated with either TNF-α or ‘complex trigger’. TNF-α trigger is added in a volume of […] to obtain final concentration of 10 ng/mL. For that, TNF-α stock (PeproTech) at 10 μg/mL was diluted to 100 ng/mL TNF-α in M199 medium supplemented with 1% FBS. ‘Complex trigger’ mix is added in a volume of 20 μL to obtain a final concentration of 12.5%. For that, ‘complex trigger’ mix, is diluted to 80% with M199 medium supplemented with 1% FBS. […]
A general note: An ELISA detects its analyte on a solid surface through an enzyme-linked reagent.

Test [2] deals with T1, TAK1-TAB1 fusion protein (Homo sapiens, UniProt O43318).
T1 construct: purchased Upstate 14-600
T1 sequence (O43318 with tags, fused parts or gaps limits assumed): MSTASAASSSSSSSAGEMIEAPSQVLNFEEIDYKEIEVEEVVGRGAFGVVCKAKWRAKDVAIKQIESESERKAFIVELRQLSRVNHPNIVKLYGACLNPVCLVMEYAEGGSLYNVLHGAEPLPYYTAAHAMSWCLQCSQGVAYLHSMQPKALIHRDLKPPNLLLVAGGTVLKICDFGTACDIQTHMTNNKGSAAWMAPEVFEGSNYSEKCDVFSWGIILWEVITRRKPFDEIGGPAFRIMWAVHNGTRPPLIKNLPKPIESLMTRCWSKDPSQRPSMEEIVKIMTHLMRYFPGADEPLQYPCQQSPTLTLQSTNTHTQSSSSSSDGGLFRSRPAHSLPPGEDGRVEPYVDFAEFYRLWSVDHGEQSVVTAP
Description: In vitro TAK1 kinase assay (33P-ATP, casein substrate). In kind it is biochemical. Conditions: semi-quantitative score, at least two independent experiments. On the procedure:
For assessing TAK1 inhibition, active TAK1-TAB1 fusion protein was used from Upstate (Cat. No, 14-600). Kinase reactions are set up in 96-well polypropylene plates in 25 μL containing 0.5 mU TAK1-TAB1 fusion protein, […], 0.01 μCi/μL [^33P]-γ-ATP, 0.1 mg/mL casein substrate in 1× reaction buffer containing 10 mM MOPS pH 7.0, 1 mM EDTA.
Starting from the compound master stocks (all at 10 mM concentration in 100% DMSO) a 3-fold serial dilution is made in 96-well plates in 100% DMSO. Plates are further diluted […] in H2O containing 3.5% DMSO, to obtain an intermediate work stock with compounds at 5× the final assay concentration in 5% DMSO.
5 μL of the intermediate stock is transferred into V-bottom 96 well polypropylene plates and 11 μL of Enzyme mix is added. Enzyme mix is made by combining 5 μL 5× reaction buffer ([…] pH 7.0, 1 mM EDTA), 5 μL casein (Sigma) diluted in H2O to 0.5 mg/mL and 1 μL of TAK1-TAB1 fusion protein that was prediluted to 0.5 mU/μL in 1× enzyme dilution buffer (20 mM MOPS pH 7.0, 0.1 mM EDTA, 0.01% Brij-35, 5% glycerol, 1 mM DTT, 1 mg/ml BSA).
The reactions are started by the addition of 9 μL of mixture containing ATP (20.83 uM) and [^33P]-γ-ATP (0.028 μCi/μL).
The assay is stopped 90 minutes after incubation at 30° C. by the addition of 25 μL phosphoric acid (150 mM). The label incorporated into the casein substrate is separated from labeled unincorporated ATP by filtration onto 96-well filter plates using a harvester device. After 6 washes with 75 mM phosphoric acid, the bottom of the filter plates are sealed, and incorporated label is quantified after addition of 40 μL scintillation fluid using TopCount.
Based on these percent inhibition data obtained in at least two independent experiments for the compounds, compounds are ranked using semi-quantitative scores. Table A below lists a number of compounds which have been or can be prepared according to the synthetic methods described herein. Semi-quantitative score: • *>3001 nM • ** 1001-3000 nM • *** 101-1000 nM • ****<100 nM

By EC50 is commonly meant the concentration needed to bring the measured effect to its halfway point. Low readings indicate a more potent agent, high ones a less potent agent. The IC50 is the concentration that gives 50% inhibition. A high value points to lower potency. `NC(=O)c1ccc(-c2ccc(Nc3ccc(N4CCOCC4)cc3)c3nccn23)cc1` [Compound 1, 4-[8-(4-Morpholin-4-yl-phenylamino)-imidazo[1,2-a]pyridin-5-yl]-benzamide]: in test [1], the 50% effective concentration (EC50) was in the range of 0.101 to 1 µM. In test [2], this molecule yielded a 50% inhibitory concentration (IC50) of 1 to 3 µM.
For `c1cn2c(-c3cn[nH]c3)ccc(Nc3ccc(N4CCOCC4)cc3)c2n1` [Compound 2, (4-Morpholin-4-yl-phenyl)-[5-(1H-pyrazol-4-yl)-imidazo[1,2-a]pyridin-8-yl]-amine] the same measures were 0.101 to 1 µM and 0.101 to 1 µM.
The corresponding values for `CN1CCN(c2ccc(Nc3ccc(-c4ccc(C(N)=O)cc4)n4ccnc34)cc2)CC1` [Compound 3, 4-{8-[4-(4-Methyl-piperazin-1-yl)-phenylamino]-imidazo[1,2-a]pyridin-5-yl}-benzamide] are < 0.1 µM and 0.101 to 1 µM.
In the case of `CN1CCN(c2ccc(Nc3ccc(-c4cn[nH]c4)n4ccnc34)cc2)CC1` [Compound 4, [4-(4-Methyl-piperazin-1-yl)-phenyl]-[5-(1H-pyrazol-4-yl)-imidazo[1,2-a]pyridin-8-yl]-amine], the EC50 in test [1] is > 3 µM. Moreover, the half-maximal inhibitory concentration (IC50) in test [2] lay within 0.101 to 1 µM.
In the case of `CC(C)N1CCN(c2ccc(Nc3ccc(-c4cn[nH]c4)n4ccnc34)cc2F)CC1` [Compound 5, [3-Fluoro-4-(4-isopropyl-piperazin-1-yl)-phenyl]-[5-(1H-pyrazol-4-yl)-imidazo[1,2-a]pyridin-8-yl]-amine], in test [1], the EC50 is 1 to 3 µM. In addition, the IC50 in test [2] was 0.101 to 1 µM.
With `CC(C)N1CCN(c2ccc(Nc3ccc(-c4cn[nH]c4)n4ccnc34)cc2)CC1` [Compound 6, [4-(4-Isopropyl-piperazin-1-yl)-phenyl]-[5-(1H-pyrazol-4-yl)-imidazo[1,2-a]pyridin-8-yl]-amine], in test [1], the half-maximal effective concentration (EC50) was 0.101 to 1 µM. The molecule further came in with an IC50 in test [2] of 0.101 to 1 µM.
For `CN1CCN(c2ccc(Nc3ccc(-c4cn[nH]c4)n4ccnc34)c(F)c2)CC1` [Compound 7, [2-Fluoro-4-(4-methyl-piperazin-1-yl)-phenyl]-[5-(1H-pyrazol-4-yl)-imidazo[1,2-a]pyridin-8-yl]amine], in test [1], the EC50 was in the range of 0.101 to 1 µM. The molecule also displayed an IC50 in test [2] of 0.101 to 1 µM.
For the molecule `CC(C)N1CCN(c2ccc(Nc3ccc(-c4csc(C(N)=O)c4)n4ccnc34)cc2)CC1` [Compound 8, 4-{8-[4-(4-Isopropyl-piperazin-1-yl)-phenylamino]-imidazo[1,2-a]pyridin-5-yl}-thiophene-2-carboxylic acid amide], the EC50 in test [1] was 0.101 to 1 µM. Besides, the 50% inhibitory concentration (IC50) in test [2] lay within 0.101 to 1 µM.
`CC(C)N1CCN(c2ccc(Nc3ccc(-c4csc(C(N)=O)c4)n4ccnc34)cc2F)CC1` [Compound 9, 4-{8-[3-Fluoro-4-(4-isopropyl-piperazin-1-yl)-phenylamino]-imidazo[1,2-a]pyridin-5-yl}-thiophene-2-carboxylic acid amide] displayed a concentration for a half-maximal effect (EC50) in test [1] of 1 to 3 µM. In test [2], the IC50 lay in the range of 1 to 3 µM.
Turning to `CC(C)N1CCN(c2ccc(Nc3ccc(-c4ccc(C(N)=O)cc4)n4ccnc34)cc2)CC1` [Compound 10, 4-{8-[4-(4-Isopropyl-piperazin-1-yl)-phenylamino]-imidazo[1,2-a]pyridin-5-yl}-benzamide], in test [1], the half-maximal effective concentration (EC50) was in the range of 0.101 to 1 µM. This molecule also showed a concentration for half-maximal inhibition (IC50) in test [2] of 0.101 to 1 µM.
Take `CC(C)N1CCN(c2ccc(Nc3ccc(-c4ccc(C(N)=O)cc4)n4ccnc34)cc2F)CC1` [Compound 11, 4-{8-[3-Fluoro-4-(4-isopropyl-piperazin-1-yl)-phenylamino]-imidazo[1,2-a]pyridin-5-yl}-benzamide]: the EC50 in test [1] was > 3 µM. The IC50 in test [2] lay within 0.101 to 1 µM.
`CC(C)N1CCN(c2ccc(Nc3ccc(-c4ccc5c(c4)CNC5=O)n4ccnc34)cc2)CC1` [Compound 12, 5-{8-[4-(4-Isopropyl-piperazin-1-yl)-phenylamino]-imidazo[1,2-a]pyridin-5-yl}-2,3-dihydro-isoindol-1-one] yielded a concentration giving a half-maximal response (EC50) in test [1] of 0.101 to 1 µM. For the same molecule, the IC50 in test [2] was < 0.1 µM.
For `O=C1NCc2cc(-c3ccc(Nc4ccc(N5CCOCC5)cc4)c4nccn34)ccc21` [Compound 13, 5-(8-(4-morpholinophenyl-amino)imidazo [1,2-a]pyridin-5-yl)isoindolin-1-one] the same measures were 1 to 3 µM and 0.101 to 1 µM.
For `CN(C)C(=O)c1ccc(Nc2ccc(-c3ccc4c(c3)CNC4=O)n3ccnc23)cc1` [Compound 14, N,N-dimethyl-4-(5-(1-oxoisoindolin-5-yl)imidazo[1,2-a]pyridin-8-ylamino)benzamide] the same measures were > 3 µM and 0.101 to 1 µM.
With `O=C1NCc2cc(-c3ccc(Nc4ccc(C(=O)N5CCOCC5)cc4)c4nccn34)ccc21` [Compound 15, 5-(8-(4-(morpholine-4-carbonyl)phenyl-amino)imidazo[1,2-a]pyridin-5-yl)isoindolin-1-one], the half-maximal effective concentration (EC50) in test [1] was > 3 µM. For the same molecule, the half-maximal inhibitory concentration (IC50) in test [2] lay in the range of 0.101 to 1 µM.
